In patent US20220296595A1, “CDK INHIBITORS” (QILU REGOR THERAPEUTICS INC., priority 2019, published 2022):
Like-named read-outs stand apart in the source and are kept apart here.

Legend:
[1] = target: T1, CDK2/CyclinE1 (Homo sapiens, UniProt P24941); assay: Assay for inhibition of CDK2/CyclinE1 (Caliper microfluidic kinase assay); type: biochemical; settings: CDK2/CyclinE1, 100 μM ATP; read-out: CDK2 IC50
T1 construct: purchased SignalChem C29-18G
How it was run: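 IC50 came from 4-parameter fits of substrate-to-product conversion, separated on a Caliper chip after an EDTA stop. Reactions ran 3 hours at room temperature with 100 μM ATP, 5 μM fluorescent FL-18 peptide and 5 nM enzyme in 100 mM HEPES pH 7.5, 10 mM MgCl2.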

[2] = system: phosphorylation of Retinoblastoma Protein (pRb Ser807/811 or Ser780) in T47D cells; assay: Inhibition of phosphorylation of retinoblastoma protein (pRb) in T47D cell (ELISA); type: cell-based, human; settings: Homo sapiens, T47D, read-out: Phospho T47D Ser807 IC50, pRb Ser807 phosphorylation, T47D cells
Procedure: T47D breast cancer cells from American Type Culture Collection (ATCC, HTB-133) were plated at 40,000 cells/well in 96-well plates, and were incubated in RPMI 1640 medium (Gibco, 31800105) with 10% Fetal Bovine Serum (FBS, Biowest, FB-1058). Cells were then allowed to adhere overnight at 37° C., 5% CO2. The following day, compounds were titrated in a 3-fold dilution scheme, and the highest compound concentration tested was […]. After 24 hours incubation with compounds, cells were lysed in ice-cold lysis buffer containing phosphatase inhibitor cocktail and 1 mM PMSF. Cell lysates (50 μL/well) were then transferred to ELISA plates (pRb Ser807/811 ELISA kit, Cell Signaling, 13152 or pRb Ser780 ELISA kit, Cell Signaling, 13016)). Plates were incubated overnight at 4° C., with constant slow speed shaking. After incubation, plates were washed following manufacturer's recommendations, and then 100 μL reconstituted detection antibody was added to each well and incubated for 1 hour at 37° C. After incubation, plates were washed, and then 100 μL reconstituted HRP-linked secondary antibody was added to each well and incubated for 30 mins at 37° C. After incubation, plates were washed. Then, 100 μL TMB substrate was added to each well and incubated for 10 min at 37° C. or 30 min at 25° C. Finally, 100 μL of STOP solution was added to each well and mixed gently for a few seconds. Plates were read on the Envision plate reader (PerkinElmer, 2104-0010) using the 96-well […] mode. IC50 values were calculated using 4 parameter sigmoidal dose-response model of Xlfit5/GraphPad Prism 5 software.

[3] = target: T2, CDK6/CyclinD3 (Homo sapiens, UniProt Q00534); assay: Assay for inhibition of CDK6/CyclinD3 (Caliper microfluidic kinase assay); type: biochemical; settings: CDK6/CyclinD3, 300 μM ATP
T2 construct: purchased Carna 04-107
How it was run: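 IC50s came from four-parameter dose-response fits of microfluidic substrate/product separation data. Reactions held 2 nM CDK6/CyclinD3, 300 μM ATP and 1 μM 5-FAM peptide FL-34 in pH 7.5 HEPES/MgCl2 buffer, ran 3 hours at room temperature, then were quenched with EDTA.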

[4] = system: T47D breast cancer cells; assay: Anti-proliferation assay in T47D cell (Cyquant, day 6); type: cell-based, human; settings: Homo sapiens, T47D, read-out: T47D IC50
How it was run: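 A ten-point, 3-fold compound series (10 μM down to 0.51 nM) was applied to overnight-settled cells in 10% FBS RPMI 1640, and DNA content was read by CyQuant fluorescence 6 days later. An untreated plate read before dosing served as baseline for subtraction before IC50 fitting.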

[5] = target: T3, CDK4/CyclinD1 (Homo sapiens, UniProt P11802); assay: Assay for inhibition of CDK4/CyclinD1 (Caliper microfluidic kinase assay); type: biochemical; settings: CDK4/CyclinD1, 200 μM ATP
T3 construct: purchased Thermofisher PR8064A
How it was run: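 IC50 was obtained by 4-parameter sigmoidal fitting after 1 nM CDK4/CyclinD1, 200 μM ATP and 1 μM FL-34 substrate reacted for 3 h at room temperature (pH 7.5 HEPES, 10 mM MgCl2). After EDTA quench, substrate and product were separated and detected on a Caliper microfluidic chip.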

T3 sequence (P11802 whole entry): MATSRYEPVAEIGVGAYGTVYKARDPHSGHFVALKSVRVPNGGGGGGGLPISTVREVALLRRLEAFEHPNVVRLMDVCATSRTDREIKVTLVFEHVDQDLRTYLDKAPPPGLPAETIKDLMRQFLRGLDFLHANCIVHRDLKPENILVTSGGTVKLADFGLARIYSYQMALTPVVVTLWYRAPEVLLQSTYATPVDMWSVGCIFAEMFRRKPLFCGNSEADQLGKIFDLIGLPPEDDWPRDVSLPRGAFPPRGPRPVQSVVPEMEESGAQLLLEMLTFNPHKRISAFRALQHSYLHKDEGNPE
T3 sequence (P24385 whole entry partner): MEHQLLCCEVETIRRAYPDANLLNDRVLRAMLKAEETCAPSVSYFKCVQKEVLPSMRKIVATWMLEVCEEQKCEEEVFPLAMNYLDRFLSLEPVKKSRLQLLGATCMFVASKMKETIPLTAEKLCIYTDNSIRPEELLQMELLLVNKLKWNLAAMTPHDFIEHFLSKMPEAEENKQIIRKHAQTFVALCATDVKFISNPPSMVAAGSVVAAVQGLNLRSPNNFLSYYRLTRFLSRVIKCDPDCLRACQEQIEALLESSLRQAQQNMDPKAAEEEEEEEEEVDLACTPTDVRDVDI
T2 sequence (Q00534 whole entry): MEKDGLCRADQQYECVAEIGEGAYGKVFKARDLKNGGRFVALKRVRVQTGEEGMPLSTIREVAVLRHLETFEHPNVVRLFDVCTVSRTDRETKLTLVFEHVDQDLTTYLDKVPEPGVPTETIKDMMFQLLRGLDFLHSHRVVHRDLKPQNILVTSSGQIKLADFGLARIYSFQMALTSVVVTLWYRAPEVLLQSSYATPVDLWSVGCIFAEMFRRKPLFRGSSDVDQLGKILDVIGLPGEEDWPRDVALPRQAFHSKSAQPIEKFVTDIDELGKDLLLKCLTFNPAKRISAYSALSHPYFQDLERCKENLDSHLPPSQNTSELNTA
T2 sequence (P30281 whole entry partner): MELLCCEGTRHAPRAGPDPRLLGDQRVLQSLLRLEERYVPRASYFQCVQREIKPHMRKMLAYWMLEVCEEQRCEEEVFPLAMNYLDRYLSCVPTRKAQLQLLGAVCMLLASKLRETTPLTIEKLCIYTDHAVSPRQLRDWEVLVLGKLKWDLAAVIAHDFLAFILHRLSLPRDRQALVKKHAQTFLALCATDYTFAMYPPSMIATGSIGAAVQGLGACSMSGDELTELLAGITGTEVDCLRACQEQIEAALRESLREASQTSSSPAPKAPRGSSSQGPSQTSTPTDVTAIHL

| SMILES | IC50 [1] [nM] | IC50 [2] [nM] | IC50 [3] [nM] | IC50 ([4]; anti-proliferation, T47D cells) [nM] | IC50 [5] [nM] | IC50 [4] [nM] |
| --- | --- | --- | --- | --- | --- | --- |
| CC(C)c1cnn2ccc(-c3nc(Nc4ccc(N5CCN(C6COC6)CCC5=O)cn4)ncc3F)cc12 [Synthetic Example 43] | 10 to 100 | < 100 | 10 to 100 | < 100 | < 10 | – |
| CC(C)n1cnc2c1CN(c1ccnc(Nc3ccc(N4CCOCC4=O)cn3)n1)CC2 [Synthetic Example 57] | 10 to 100 | < 100 | 100 to 1000 | 100 to 500 | < 10 | – |
| CC1(C)COc2c(F)cc(-c3ccnc(Nc4ccc(N5CCNCC5=O)cn4)n3)cc21 [Synthetic Example 59] | 10 to 100 | < 100 | 10 to 100 | < 100 | < 10 | – |
| CC(C)n1cnc2c(F)nc(-c3ccnc(Nc4ccc(N5CCOCC5=O)cn4)n3)cc21 [Synthetic Example 61] | 10 to 100 | < 100 | 10 to 100 | < 100 | < 10 | – |
| COc1nc(-c2nc(Nc3ccc(N4CCC(N(C)C)CC4=O)cn3)ncc2F)cc2c1nc(C)n2C(C)C (stereo not shown) [Synthetic Example 62, 4-(dimethylamino)-1-[6-[[5-fluoro-4-(1-isopropyl-4-methoxy-2-methyl-imidazo[4,5-c]pyridin-6-yl)pyrimidin-2-yl]amino]-3-pyridyl]piperidin-2-one] | > 1000 | < 100 | 10 to 100 | < 100 | < 10 | – |
| COc1nc(-c2nc(Nc3ccc(N4CCNCC4)cn3)ncc2F)cc2c1nc(C)n2C(C)C [Synthetic Example 106] | > 1000 | < 100 | 10 to 100 | 100 to 500 | < 10 | – |
| COc1nc(-c2nc(Nc3ccc(N4CCN(S(C)(=O)=O)CC4=O)cn3)ncc2F)cc2c1nc(C)n2C(C)C [Synthetic Example 127] | 100 to 1000 | 100 to 500 | 10 to 100 | 100 to 500 | < 10 | – |
| CCN1CCN(c2ccc(Nc3ncc(F)c(-c4cc5c(nc(C)n5C(C)C)c(OC)n4)n3)nc2)C(=O)C1 [Synthetic Example 128] | > 1000 | < 100 | 10 to 100 | – | < 10 | 100 to 500 |
| CN(C)C1CCN(c2ccc(Nc3nccc(-c4ccn5ncc(C(C)(C)C)c5c4)n3)nc2)C(=O)C1 (stereo not shown) [Synthetic Example 175] | < 10 | < 100 | < 10 | < 100 | < 10 | – |
| CNC1CCN(c2ccc(Nc3nccc(-c4ccn5ncc(C(C)C)c5c4)n3)nc2)C(=O)C1 (stereo not shown) [Synthetic Example 204, 1-[6-[[4-(3-isopropylpyrazolo[1,5-a]pyridin-5-yl)pyrimidin-2-yl]amino]-3-pyridyl]-4-(methylamino)piperidin-2-one] | < 10 | < 100 | < 10 | < 100 | < 10 | – |
| Cc1nc2c(F)nc(-c3ccnc(Nc4ccc(N5CCCC(N(C)C)C5=O)cn4)n3)cc2n1C(C)C (stereo not shown) [Synthetic Example 301, 3-(dimethylamino)-1-[6-[[4-(4-fluoro-1-isopropyl-2-methyl-imidazo[4,5-c]pyridin-6-yl)pyrimidin-2-yl]amino]-3-pyridyl]piperidin-2-one] | > 1000 | < 100 | < 10 | < 100 | < 10 | – |
| CC(C)c1cnn2ccc(-c3nc(Nc4ccc(N5CCC(N(C)C)CC5=O)cn4)ncc3F)cc12 (stereo not shown) [compound 3] | 10 to 100 | < 100 | 10 to 100 | < 100 | < 10 | – |
| CC(C)c1cnn2ccc(-c3nc(Nc4ccc(N5CCOCC5=O)cc4F)ncc3F)cc12 [compound 7] | < 10 | 100 to 500 | 10 to 100 | 100 to 500 | < 10 | – |
| CC(C)c1cnn2ccc(-c3nc(Nc4ccc(N5CCOCC5=O)cc4)ncc3F)cc12 [compound 25] | < 10 | < 100 | 10 to 100 | < 100 | < 10 | – |
